pIC50: −log10 of the molar value.
Test system: 556581-035-R-J1-PDC complex spheroid growth
Assay: Anticancer human tumor 556581-035-R-J1-PDC patient-derived ovarian carcinoma cell line growth inhibition [AhR]
Settings: for pIC50: curve of first compound; for viability, T/C: stronger effect = lower value; active means viability on the fitted dose curve at most 10% of control; inactive means the rest
In short: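 Agents were dosed in half-log steps down from roughly clinical Cmax, or from 10 microM where Cmax was unknown, alone and with AhR antagonists. Read-out: percent test/control growth of tumor spheroids containing HUVEC and MSC stromal cells.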

[1] = second compound 0.1 µM, first compound 0.0316 µM
[2] = second compound 0.1 µM, first compound 0.1 µM
[3] = second compound 0.1 µM, first compound 0.316 µM
[4] = second compound 0.1 µM, first compound 1 µM
[5] = second compound 0.316 µM, first compound 0.0316 µM
[6] = second compound 0.316 µM, first compound 0.1 µM
[7] = second compound 0.316 µM, first compound 0.316 µM
[8] = second compound 0.316 µM, first compound 1 µM
[9] = second compound 1 µM, first compound 0.0316 µM
[10] = second compound 1 µM, first compound 0.1 µM
[11] = second compound 1 µM, first compound 0.316 µM
[12] = second compound 1 µM, first compound 1 µM
[13] = second compound 3.16 µM, first compound 0.0316 µM
[14] = second compound 3.16 µM, first compound 0.1 µM
[15] = second compound 3.16 µM, first compound 0.316 µM
[16] = second compound 3.16 µM, first compound 1 µM
[17] = second compound 10 µM, first compound 0.0316 µM
[18] = second compound 10 µM, first compound 0.1 µM
[19] = second compound 10 µM, first compound 0.316 µM
[20] = second compound 10 µM, first compound 1 µM
[21] = second compound 0.1 µM, first compound 3.16 µM
[22] = second compound 0.1 µM, first compound 10 µM
[23] = second compound 0.316 µM, first compound 3.16 µM
[24] = second compound 0.316 µM, first compound 10 µM
[25] = second compound 1 µM, first compound 3.16 µM
[26] = second compound 1 µM, first compound 10 µM
[27] = second compound 3.16 µM, first compound 3.16 µM
[28] = second compound 3.16 µM, first compound 10 µM
[29] = second compound 10 µM, first compound 3.16 µM
[30] = second compound 10 µM, first compound 10 µM
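Wherever viability, T/C is given: compound exposure lasted 7 days; 100% = DMSO vehicle control growth.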

Nc1ncn(C2CC(O)C(CO)O2)c(=O)n1 (stereo not given) + Cc1cncc(-c2nc(NCCc3c[nH]c4ccccc34)c3ncn(C(C)C)c3n2)c1
< 6.00: pIC50 (second compound 0.1 µM) | pIC50 (second compound 0.316 µM) | pIC50 (second compound 1 µM) | pIC50 (second compound 3.16 µM) | pIC50 (second compound 10 µM)
inactive: viability, T/C (second compound 0.1 µM, first compound 0.00316 µM) 97.2% | viability, T/C (second compound 0.1 µM, first compound 0.01 µM) 95.1% | viability, T/C [1] 106% | viability, T/C [2] 89% | viability, T/C [3] 84.8% | viability, T/C [4] 77.4% | viability, T/C (second compound 0.316 µM, first compound 0.00316 µM) 102% | viability, T/C (second compound 0.316 µM, first compound 0.01 µM) 93.6% | viability, T/C [5] 90.7% | viability, T/C [6] 87% | viability, T/C [7] 93.1% | viability, T/C [8] 85.6% | viability, T/C (second compound 1 µM, first compound 0.00316 µM) 91.4% | viability, T/C (second compound 1 µM, first compound 0.01 µM) 105% | viability, T/C [9] 104% | viability, T/C [10] 110% | viability, T/C [11] 92.6% | viability, T/C [12] 82.2% | viability, T/C (second compound 3.16 µM, first compound 0.00316 µM) 98.2% | viability, T/C (second compound 3.16 µM, first compound 0.01 µM) 95.5% | viability, T/C [13] 93.6% | viability, T/C [14] 94.7% | viability, T/C [15] 88.3% | viability, T/C [16] 90.2% | viability, T/C (second compound 10 µM, first compound 0.00316 µM) 83.7% | viability, T/C (second compound 10 µM, first compound 0.01 µM) 78.5% | viability, T/C [17] 81.6% | viability, T/C [18] 82% | viability, T/C [19] 81.8% | viability, T/C [20] 83.6%

COc1cccc2c1C(=O)c1c(O)c3c(c(O)c1C2=O)CC(O)(C(=O)CO)CC3OC1CC(N)C(O)C(C)O1 (stereo not given) + CC(CO)NC(=O)c1cc(-c2ccc(Cl)cc2)nn(-c2cnn(C)c2)c1=O
6.35: pIC50 (second compound 1 µM)
6.41: pIC50 (second compound 0.1 µM)
6.43: pIC50 (second compound 3.16 µM)
6.40: pIC50 (second compound 0.316 µM)
active: viability, T/C [21] 3.94% | viability, T/C [22] 3.84% | viability, T/C [23] 4.59% | viability, T/C [24] 3.12% | viability, T/C [25] 3.33% | viability, T/C [26] 3.66% | viability, T/C [27] 4.03% | viability, T/C [28] 3.23% | viability, T/C [20] 3.3% | viability, T/C [29] 1.46% | viability, T/C [30] 3.96%
6.44: pIC50 (second compound 10 µM)
inactive: viability, T/C [1] 89.7% | viability, T/C [2] 80.7% | viability, T/C [3] 58.7% | viability, T/C [4] 16.1% | viability, T/C [5] 83.9% | viability, T/C [6] 79.3% | viability, T/C [7] 58.1% | viability, T/C [8] 17.5% | viability, T/C [9] 85% | viability, T/C [10] 87.3% | viability, T/C [11] 64.8% | viability, T/C [12] 14.5% | viability, T/C [13] 75.8% | viability, T/C [14] 79.4% | viability, T/C [15] 55.9% | viability, T/C [16] 13.1% | viability, T/C [17] 88.9% | viability, T/C [18] 87% | viability, T/C [19] 56%

CC(C)c1c(-c2ccccc2)nc2c(C#N)c[nH]n2c1=O + Cc1cncc(-c2nc(NCCc3c[nH]c4ccccc34)c3ncn(C(C)C)c3n2)c1
< 5.00: pIC50 (second compound 0.1 µM) | pIC50 (second compound 0.316 µM) | pIC50 (second compound 1 µM) | pIC50 (second compound 3.16 µM) | pIC50 (second compound 10 µM)
inactive: viability, T/C [1] 110% | viability, T/C [2] 106% | viability, T/C [3] 102% | viability, T/C [4] 103% | viability, T/C [21] 108% | viability, T/C [22] 88.5% | viability, T/C [5] 106% | viability, T/C [6] 110% | viability, T/C [7] 96.9% | viability, T/C [8] 108% | viability, T/C [23] 95.6% | viability, T/C [24] 96.3% | viability, T/C [9] 97.4% | viability, T/C [10] 107% | viability, T/C [11] 114% | viability, T/C [12] 102% | viability, T/C [25] 91.8% | viability, T/C [26] 102% | viability, T/C [13] 98.6% | viability, T/C [14] 104% | viability, T/C [15] 99.2% | viability, T/C [16] 92.7% | viability, T/C [27] 95.5% | viability, T/C [28] 90.5% | viability, T/C [17] 76.5% | viability, T/C [18] 84% | viability, T/C [19] 90% | viability, T/C [20] 71.1% | viability, T/C [29] 68.2% | viability, T/C [30] 70.7%

From PubChem BioAssay AID1918999 (Molecular Pharmacology Branch, DTP, NCI, 2023)
